Test results as given in patent US12590071B2, “Hydrazone derivative in which terminal amine group is substituted with aryl group or heteroaryl group, and use thereof” (KOREA INSTITUTE OF SCIENCE AND TECHNOLOGY, priority 2018, dated 2026).

What was measured:
[1] = Liver microsomal stability (human); assay type: in vitro ADME; settings: amount of substrate remaining; 1 μM, 0.25 mg/mL microsomes, 37° C., 30 minutes
Method in brief: (§1)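 Compound at 1 μM with microsomes (0.25 mg/mL each species) in 0.1 M phosphate buffer pH 7.4, preincubated 5 min at 37 °C, then 30 min at 37 °C after NADPH-generating system addition. Quenched with acetonitrile plus internal standard; remaining substrate measured by LC-MS/MS.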

[2] = molecular target: T1, CYP3A4 (Homo sapiens, UniProt P08684); assay: Inhibition of CYP coenzyme activity in human liver microsomes; assay type: in vitro ADME; parameters: scale not given here; settings: compound 10 PM (so in the source); human liver microsomes 0.25 mg/mL; substrate midazolam; 15 minutes
T1 construct: human liver microsomes (0.25 mg/mL); from tissue; host or cells: human liver microsomes
T1 sequence (P08684 whole entry): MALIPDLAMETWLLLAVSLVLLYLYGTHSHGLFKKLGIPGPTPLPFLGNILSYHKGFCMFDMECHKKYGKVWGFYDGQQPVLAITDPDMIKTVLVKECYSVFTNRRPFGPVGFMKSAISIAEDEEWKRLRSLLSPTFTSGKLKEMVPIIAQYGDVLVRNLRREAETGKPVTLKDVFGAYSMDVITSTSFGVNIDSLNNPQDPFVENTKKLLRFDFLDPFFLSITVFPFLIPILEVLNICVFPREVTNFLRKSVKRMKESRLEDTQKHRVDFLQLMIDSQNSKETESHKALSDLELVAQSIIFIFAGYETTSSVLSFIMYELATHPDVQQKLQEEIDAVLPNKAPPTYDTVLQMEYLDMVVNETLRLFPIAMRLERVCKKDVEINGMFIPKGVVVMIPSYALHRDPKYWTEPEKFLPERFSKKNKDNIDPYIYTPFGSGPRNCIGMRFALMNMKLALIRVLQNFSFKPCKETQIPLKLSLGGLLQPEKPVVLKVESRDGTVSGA
Method in brief: (§2)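 Human liver microsomes (0.25 mg/mL) in 0.1 M phosphate pH 7.4 with a substrate cocktail (phenacetin 50 μM, diclofenac 10 μM, S-mephenytoin 100 μM, dextromethorphan 5 μM, midazolam 2.5 μM) and compound at 0 or 10 μM. Preincubated 5 min at 37 °C, then 15 min with NADPH system. Metabolites quantified by LC-MS/MS (MRM).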

[3] = molecular target: T2, tau protein (Homo sapiens, UniProt P10636); assay: Tau protein aggregation inhibition in tau-BiFC cell model; assay type: cell-based; settings: tau-BiFC cells treated together with Forskolin, 48 hours
T2 construct: expressed in transfected cells
T2 sequence (P10636 2-441 isoform P10636-8 limits assumed): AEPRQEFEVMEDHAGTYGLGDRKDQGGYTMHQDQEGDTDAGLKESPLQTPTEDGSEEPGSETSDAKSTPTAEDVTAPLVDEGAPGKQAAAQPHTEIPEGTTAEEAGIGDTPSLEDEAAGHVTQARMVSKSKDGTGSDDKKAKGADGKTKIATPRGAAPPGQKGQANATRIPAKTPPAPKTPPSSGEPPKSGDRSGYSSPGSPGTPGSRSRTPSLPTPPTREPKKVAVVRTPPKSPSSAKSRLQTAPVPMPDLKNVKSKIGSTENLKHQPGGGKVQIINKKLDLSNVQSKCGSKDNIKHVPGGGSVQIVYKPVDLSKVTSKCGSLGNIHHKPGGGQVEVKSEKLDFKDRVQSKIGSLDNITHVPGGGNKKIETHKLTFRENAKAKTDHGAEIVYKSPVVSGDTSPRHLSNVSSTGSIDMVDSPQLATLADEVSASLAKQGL
Method in brief: (§3)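 Tau-BiFC cells co-treated 48 h with Forskolin ([…]) and compound at 0.03–30 μM. BiFC fluorescence quantified by imaging, IC50 by nonlinear regression; cytotoxicity as Hoechst-stained nuclei count relative to Forskolin-only wells (100% survival).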

[4] = Liver microsomal stability (rat); assay type: in vitro ADME; settings: amount of substrate remaining; 1 μM, 0.25 mg/mL microsomes, 37° C., 30 minutes
Method in brief: as §1

[5] = Liver microsomal stability (dog); assay type: in vitro ADME; settings: amount of substrate remaining; 1 μM, 0.25 mg/mL microsomes, 37° C., 30 minutes
Method in brief: as §1

[6] = Liver microsomal stability (mouse); assay type: in vitro ADME; settings: amount of substrate remaining; 1 μM, 0.25 mg/mL microsomes, 37° C., 30 minutes
Method in brief: as §1

[7] = system: Tau-BiFC cells; assay: Cytotoxicity (cell survival rate) in tau-BiFC cells; settings: group treated with Forskolin alone = 100%
Method in brief: as §3

[8] = molecular target: T3, CYP2C9 (Homo sapiens, UniProt P11712); assay: Inhibition of CYP coenzyme activity in human liver microsomes; assay type: in vitro ADME; settings: compound 10 PM (so in the source); human liver microsomes 0.25 mg/mL; substrate diclofenac; 15 minutes
T3 construct: human liver microsomes (0.25 mg/mL); from tissue; host or cells: human liver microsomes
T3 sequence (P11712 whole entry): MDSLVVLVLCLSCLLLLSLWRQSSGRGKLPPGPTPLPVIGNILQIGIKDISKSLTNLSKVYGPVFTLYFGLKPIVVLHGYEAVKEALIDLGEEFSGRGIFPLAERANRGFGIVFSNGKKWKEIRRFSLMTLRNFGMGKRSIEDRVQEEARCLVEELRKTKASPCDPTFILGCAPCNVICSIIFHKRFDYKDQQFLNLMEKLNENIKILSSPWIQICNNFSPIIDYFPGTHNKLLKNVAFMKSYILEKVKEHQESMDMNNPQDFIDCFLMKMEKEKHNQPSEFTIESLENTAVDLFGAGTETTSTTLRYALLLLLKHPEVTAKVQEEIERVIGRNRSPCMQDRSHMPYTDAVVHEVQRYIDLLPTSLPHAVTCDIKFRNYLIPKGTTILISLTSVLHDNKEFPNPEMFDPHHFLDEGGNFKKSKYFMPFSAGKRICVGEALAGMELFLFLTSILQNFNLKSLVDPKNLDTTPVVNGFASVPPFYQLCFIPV
Method in brief: as §2

[9] = molecular target: T4, CYP2C19 (Homo sapiens, UniProt P33261); assay: as above; assay type: in vitro ADME; settings: compound 10 PM (so in the source); human liver microsomes 0.25 mg/mL; substrate S-mephenytoin; 15 minutes
T4 construct: human liver microsomes (0.25 mg/mL); from tissue; host or cells: human liver microsomes
T4 sequence (P33261 whole entry): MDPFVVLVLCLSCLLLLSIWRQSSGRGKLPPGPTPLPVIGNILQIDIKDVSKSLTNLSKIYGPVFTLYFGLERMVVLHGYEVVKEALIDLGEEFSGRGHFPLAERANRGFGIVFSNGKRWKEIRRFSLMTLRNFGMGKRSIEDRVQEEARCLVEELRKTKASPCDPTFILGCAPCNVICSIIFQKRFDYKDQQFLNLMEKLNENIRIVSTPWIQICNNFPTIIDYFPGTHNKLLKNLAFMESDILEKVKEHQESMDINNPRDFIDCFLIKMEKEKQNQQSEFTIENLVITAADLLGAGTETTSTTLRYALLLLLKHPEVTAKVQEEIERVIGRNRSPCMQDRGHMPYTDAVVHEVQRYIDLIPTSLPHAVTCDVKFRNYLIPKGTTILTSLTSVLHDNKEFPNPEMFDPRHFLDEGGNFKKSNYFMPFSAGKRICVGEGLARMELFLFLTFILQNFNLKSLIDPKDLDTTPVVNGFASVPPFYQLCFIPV
Method in brief: as §2

[10] = molecular target: T5, CYP2D6 (Homo sapiens, UniProt P10635); assay: as above; assay type: in vitro ADME; settings: compound 10 PM (so in the source); human liver microsomes 0.25 mg/mL; substrate dextromethorphan; 15 minutes
T5 construct: human liver microsomes (0.25 mg/mL); from tissue; host or cells: human liver microsomes
T5 sequence (P10635 whole entry): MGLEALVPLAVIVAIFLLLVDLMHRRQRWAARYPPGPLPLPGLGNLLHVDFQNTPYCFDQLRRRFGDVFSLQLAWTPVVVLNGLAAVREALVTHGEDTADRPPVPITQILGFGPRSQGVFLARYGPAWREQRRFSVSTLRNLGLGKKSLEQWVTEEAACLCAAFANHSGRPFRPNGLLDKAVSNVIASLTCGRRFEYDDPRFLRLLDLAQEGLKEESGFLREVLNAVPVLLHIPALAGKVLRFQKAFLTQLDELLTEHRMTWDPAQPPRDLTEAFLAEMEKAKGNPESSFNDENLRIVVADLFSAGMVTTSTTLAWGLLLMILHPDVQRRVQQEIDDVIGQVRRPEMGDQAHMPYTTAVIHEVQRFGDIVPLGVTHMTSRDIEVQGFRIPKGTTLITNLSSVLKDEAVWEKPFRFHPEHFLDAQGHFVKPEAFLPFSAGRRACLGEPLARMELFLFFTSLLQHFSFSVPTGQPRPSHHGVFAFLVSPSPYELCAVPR
Method in brief: as §2

[11] = molecular target: T6, CYP1A2 (Homo sapiens, UniProt P05177); assay: as above; assay type: in vitro ADME; settings: compound 10 PM (so in the source); human liver microsomes 0.25 mg/mL; substrate phenacetin; 15 minutes
T6 construct: human liver microsomes (0.25 mg/mL); from tissue; host or cells: human liver microsomes
T6 sequence (P05177 1-516): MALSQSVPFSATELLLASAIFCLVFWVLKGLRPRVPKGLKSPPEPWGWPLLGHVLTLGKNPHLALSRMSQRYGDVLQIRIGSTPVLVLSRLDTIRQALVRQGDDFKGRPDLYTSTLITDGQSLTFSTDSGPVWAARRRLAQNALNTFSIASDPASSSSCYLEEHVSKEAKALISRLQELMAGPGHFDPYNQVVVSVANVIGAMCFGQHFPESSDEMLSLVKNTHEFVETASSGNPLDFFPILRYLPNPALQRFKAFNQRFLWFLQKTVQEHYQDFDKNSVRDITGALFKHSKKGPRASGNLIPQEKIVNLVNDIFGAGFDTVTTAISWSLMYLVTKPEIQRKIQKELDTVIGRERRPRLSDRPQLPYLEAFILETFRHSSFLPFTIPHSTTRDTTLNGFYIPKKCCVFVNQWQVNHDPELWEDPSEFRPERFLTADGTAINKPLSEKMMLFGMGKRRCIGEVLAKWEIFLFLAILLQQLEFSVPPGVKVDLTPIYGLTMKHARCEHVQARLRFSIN
Method in brief: as §2

Row | Structure (SMILES) | liver microsomal stability, Human (%) [1] | inhibition effects of CYP coenzyme activity, CYP3A4 [2] | IC50 [3] | liver microsomal stability, Rat (%) [4] | liver microsomal stability, Dog (%) [5] | liver microsomal stability, Mouse (%) [6] | Cell survival rate (% @ 10 μM) [7] | inhibition effects of CYP coenzyme activity, CYP2C9 [8] | inhibition effects of CYP coenzyme activity, CYP2C19 [9] | inhibition effects of CYP coenzyme activity, CYP2D6 [10] | inhibition effects of CYP coenzyme activity, CYP1A2 [11]
1 | N#CC(C#N)=NNc1ccc2nc(NC(=O)c3cnccn3)sc2c1 [Compound 92, (2-(pyrazine-2-carboxamido)benzo[d]thiazol-6-yl)carbonohydrazonoyl dicyanide] | 74.6% | 85.5 | 240 nM | 72.7% | 74.7% | 51.9% | 119.5% | 46.8 | 90.5 | 99.1 | 64.1
2 | Cc1cncc(-c2nc3ccc(NN=C(C#N)C#N)cc3s2)c1 [Compound 110, (2-(5-methylpyridin-3-yl)benzo[d]thiazol-6-yl)carbonohydrazonoyl dicyanide] | 55% | 55 | 760 nM | 51.3% | 60.2% | 70.8% | 74.6% | 60.2 | 51.3 | 70.8 | 55
3 | CN(C)c1ccc(-c2ccc(NN=C(C#N)C#N)cc2)cc1 [Compound 151, (4′-(dimethylamino)biphenyl-4-yl)carbohydrazonoyl dicyanide] | 94.4% | 94.4 | 650 nM | 85.2% | 83.6% | 94.6% | 69.5% | 83.6 | 85.2 | 94.6 | 94.4
